From US7423051B2, “2,6-diaminopyridine derivatives” (Hoffmann-La Roche Inc., priority 2004, dated 2008)
Where two headings read alike, the source gives them in different places.

Assays:
[1] = molecular target: T1, human cyclin E-CDK2 (Homo sapiens, UniProt P24941); assay: CDK2 HTRF kinase assay (Ki measurement); type: biochemical; conditions: Rb substrate, ATP at 3x Km, Ki=IC50/(1+S/Km)
T1 construct: made in house; host or cells: High Five insect cells (baculovirus)
Excerpt: (§1) Using recombinant human cyclin B-CDK1, human cyclin E-CDK2 or human cyclin D1-CDK4 complexes. GST-cyclinE (GST-cycE), CDK2, GST-cyclinB (GST-cycB), CDK1, GST-CDK4 and cyclin D1 (cycD1) cDNA clones in baculovirus vectors were provided by Dr. W. Harper at the Baylor College of Medicine, Houston, Tex. Proteins were co-expressed in High Five™ insect cells and the complex was purified on glutathione Sepharose resin (Pharmacia, Piscataway, N.J.) as previously described (Harper, J. W. et al. Cell 1993, 75, 805-816). A 6×-Histidine tagged truncated form of retinoblastoma (Rb) protein (amino acid 386-928) was used as the substrate for the cycD1-CDK4, cycB-CDK1 and the cycE-CDK2 assays (the expression plasmid was provided by Dr. Veronica Sullivan, Department of Molecular Virology, Roche Research Centre, Welwyn Garden City, United Kingdom). The Rb protein is a natural substrate for phosphorylation by CDK4, CDK2 and CDK1 (see Herwig and Strauss Eur. J. Biochem. Vol. 246 (1997) pp.581-601 and the references cited therein).
(§2) The expression of the 62Kd protein was under the control of an IPTG inducible promoter in an M15 E. coli strain. […] Purified Rb fusion protein stocks were quantitated for protein concentration, aliquoted, and stored at −70° C.
(§3) Using the protein constructs described above, CDK1, CDK2, and CDK4 HTRF assays were set up. These were done in 96-well format and read in 384-well plate format. […]
In the CDK4 assay, test compounds were diluted to 3× their final concentrations in 25 mM Hepes, pH 7.0, 6.25 mM MgCl2, 1.5 mM DTT, 135 μM ATP. […] The plates were read using either ViewLux or Victor V readers (PerkinElmer Life Sciences) using an excitation wavelength of 340 nm and dual emission wavelengths of 615 nm and 665 nm. […] For ATP competitive inhibitors, the Ki values were calculated according to the following equation: Ki=IC50/(1+S/Km) where S refers to the substrate concentration (ATP) and Km refers to the Michaelis-Menten constant for the ATP. […]

[2] = molecular target: T2, human cyclin D1-CDK4 (Homo sapiens, UniProt P11802); assay: CDK4 HTRF kinase assay (Ki measurement); type: biochemical; conditions: Rb substrate, ATP at 3x Km, Ki=IC50/(1+S/Km)
T2 construct: GST (N); made in house; host or cells: High Five insect cells (baculovirus)
T2 sequence (P11802 whole entry): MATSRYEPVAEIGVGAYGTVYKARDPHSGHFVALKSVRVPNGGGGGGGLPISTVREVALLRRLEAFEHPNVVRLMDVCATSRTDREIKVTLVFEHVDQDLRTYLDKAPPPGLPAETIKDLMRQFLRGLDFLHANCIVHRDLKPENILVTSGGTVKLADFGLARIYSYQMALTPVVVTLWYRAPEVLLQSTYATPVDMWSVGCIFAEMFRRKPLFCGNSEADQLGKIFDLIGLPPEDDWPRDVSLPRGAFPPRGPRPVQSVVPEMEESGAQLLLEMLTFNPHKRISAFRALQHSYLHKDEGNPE
T2 sequence (P24385 whole entry partner): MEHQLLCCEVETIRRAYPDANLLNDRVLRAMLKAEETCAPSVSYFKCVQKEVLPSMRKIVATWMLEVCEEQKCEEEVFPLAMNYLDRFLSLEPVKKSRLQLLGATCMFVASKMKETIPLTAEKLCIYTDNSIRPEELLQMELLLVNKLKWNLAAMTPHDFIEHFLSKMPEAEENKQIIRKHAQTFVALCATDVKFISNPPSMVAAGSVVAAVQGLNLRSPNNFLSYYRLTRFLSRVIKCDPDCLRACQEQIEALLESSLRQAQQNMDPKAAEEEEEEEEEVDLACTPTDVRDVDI
Excerpt: as §1, §2, §3
In the CDK4 assay, test compounds were diluted to 3× their final concentrations in 25 mM Hepes, pH 7.0, 6.25 mM MgCl2, 1.5 mM DTT, 135 μM ATP. […] The plates were read using either ViewLux or Victor V readers (PerkinElmer Life Sciences) using an excitation wavelength of 340 nm and dual emission wavelengths of 615 nm and 665 nm. […] For ATP competitive inhibitors, the Ki values were calculated according to the following equation: Ki=IC50/(1+S/Km) where S refers to the substrate concentration (ATP) and Km refers to the Michaelis-Menten constant for the ATP.

[3] = test system: HCT116 cell line; assay: Tetrazolium dye proliferation assay (MTT assay); type: cell-based; conditions: HCT-116; human colon tumor cell line HCT116, MTT assay
Experimental: Cell Based Assays (Tetrazolium dye proliferation assay)(“MTT Assay”)
Proliferation was evaluated by the tetrazolium dye assay according to the procedure of Denizot and Lang (Denizot, F. and Lang, R. J Immunol Methods 1986, 89, 271-277). The cell line used was HCT116, a colorectal carcinoma cell line obtained from the American Type Cell Culture Collection (ATCC; Rockville, Md.). The cells were grown in McCoy's 5A medium supplemented with 10% FCS and L-glutamine.
Cells were plated at the appropriate seeding density to give logarithmic growth over the course of the assay in a 96-well tissue culture plate. Plates were incubated overnight at 37° C. in a humidified incubator with 5% CO2. The next day, test compounds were serially diluted to four times the final concentration in the appropriate medium containing 1.2% DMSO. One-fourth final volume of each dilution was added in duplicate to the plates containing cells. The same volume of 1.2% DMSO in medium was added to a row of “control wells” such that the final concentration of DMSO in each well was 0.3%. Wells to which no cells were added served as the “blank.” Wells to which no inhibitor was added served as “no inhibitor control.” The plates were returned to the incubator, and at set time points (determined by their growth curves) plates were analyzed as described below.
3-(4,5-dimethylthiazole-2-yl)-2,5-diphenyl-2H-tetrazolium bromide (thiazolyl blue; MTT; Sigma) was added to each well to yield a final concentration of 1 mg/ml. Plates were returned to the incubator for 2.5-3 hours at 37° C. […] Absorbance readings were taken in a microtiter plate reader (Dynatech and Molecular Devices plate readers were used interchangeably) at a wavelength of 570 nm with a 650 nm reference. Percent inhibition (% INH) is calculated by subtracting the absorbance of the blank well from all wells, then subtracting the ratio of the average absorbance of each test duplicate (SAVE) by the average of the controls (CAVE) from 1.00. […]

[4] = molecular target: T3, human cyclin B-CDK1 (Homo sapiens, UniProt P06493); assay: CDK1 HTRF kinase assay (Ki measurement); type: biochemical; conditions: Rb substrate, ATP at 3x Km, Ki=IC50/(1+S/Km)
T3 construct: made in house; host or cells: High Five insect cells (baculovirus)
T3 sequence (P06493 whole entry): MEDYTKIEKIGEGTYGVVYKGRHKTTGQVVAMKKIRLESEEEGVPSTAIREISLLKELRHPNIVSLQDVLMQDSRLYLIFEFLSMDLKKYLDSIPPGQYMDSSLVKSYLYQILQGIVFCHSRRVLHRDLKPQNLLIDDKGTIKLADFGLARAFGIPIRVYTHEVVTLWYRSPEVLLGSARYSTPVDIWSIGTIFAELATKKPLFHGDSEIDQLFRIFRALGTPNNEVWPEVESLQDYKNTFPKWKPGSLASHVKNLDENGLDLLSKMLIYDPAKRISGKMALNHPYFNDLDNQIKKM
T3 sequence (P14635 whole entry partner): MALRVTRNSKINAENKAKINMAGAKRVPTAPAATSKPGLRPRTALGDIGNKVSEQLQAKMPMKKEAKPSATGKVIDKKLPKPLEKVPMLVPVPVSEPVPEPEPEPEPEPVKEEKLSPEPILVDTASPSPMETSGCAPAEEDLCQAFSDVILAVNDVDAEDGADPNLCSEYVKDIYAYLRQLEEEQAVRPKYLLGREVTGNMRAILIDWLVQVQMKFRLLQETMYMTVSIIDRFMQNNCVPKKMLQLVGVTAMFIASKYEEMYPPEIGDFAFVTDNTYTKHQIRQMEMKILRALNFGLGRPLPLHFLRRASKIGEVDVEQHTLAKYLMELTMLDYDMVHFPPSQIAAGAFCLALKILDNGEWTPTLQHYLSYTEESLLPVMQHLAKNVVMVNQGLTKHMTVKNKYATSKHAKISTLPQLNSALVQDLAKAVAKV
Excerpt: Using recombinant human cyclin B-CDK1, human cyclin E-CDK2 or human cyclin D1-CDK4 complexes. GST-cyclinE (GST-cycE), CDK2, GST-cyclinB (GST-cycB), CDK1, GST-CDK4 and cyclin D1 (cycD1) cDNA clones in baculovirus vectors were provided by Dr. W. Harper at the Baylor College of Medicine, Houston, Tex. Proteins were co-expressed in High Five™ insect cells and the complex was purified on glutathione Sepharose resin (Pharmacia, Piscataway, N.J.) as previously described (Harper, J. W. et al. Cell 1993, 75, 805-816). […]
as §2, §3
In the CDK4 assay, test compounds were diluted to 3× their final concentrations in 25 mM Hepes, pH 7.0, 6.25 mM MgCl2, 1.5 mM DTT, 135 μM ATP. […] The plates were read using either ViewLux or Victor V readers (PerkinElmer Life Sciences) using an excitation wavelength of 340 nm and dual emission wavelengths of 615 nm and 665 nm. […]

SMILES | Ki ([1]; read-out: Ki for cdk2) [µM] | Ki [2] [µM] | IC50 [3] [µM] | Ki [4] [µM] | Ki ([1]; read-out: Ki for cdk2 (unit inferred)) [µM]
COc1ccc(F)cc1C(=O)c1ccc(NC2CCN(S(C)(=O)=O)CC2)nc1N [Example 23, [2-Amino-6-(1-methanesulfonyl-piperidin-4-ylamino)-pyridin-3-yl]-(5-fluoro-2-methoxy-phenyl)-methanone] | 0.098 | 0.04 | 9 |  | 
COc1ccc(F)c(F)c1C(=O)c1ccc(NC2CCN(S(C)(=O)=O)CC2)nc1N [Example 40, [2-Amino-6-(1-methanesulfonyl-piperidin-4-ylamino)-pyridin-3-yl]-(2,3-difluoro-6-methoxy-phenyl)-methanone] |  | 0.017 | 2.6 | 0.06 | 0.054
COc1cc(Cl)c(F)cc1C(=O)c1ccc(NC2CCN(S(C)(=O)=O)CC2)nc1N [Example 49, [2-Amino-6-(1-methanesulfonyl-piperidin-4-ylamino)-pyridin-3-yl]-(4-chloro-5-fluoro-2-methoxy-phenyl)-methanone] | 0.039 | 0.008 | 3 | 0.154 | 
